The text below walks through data of patent publication US8674113B2, “Compounds” (Boehringer Ingelheim International GmbH, priority 2010, dated 2014).

Like-named read-outs stand apart in the source and are kept apart here.

For test [1], the target named is recombinant human mPGES-1 (Homo sapiens (Human), UniProt O14684). Briefly: mPGES-1 enzyme assay (HTRF detection of PGE2). The test is classed as biochemical. As for the experimental part:
Microsomes from Rosetta E. coli bacteria expressing recombinant human mPGES-1 can be derived as described below:
Inoculate 5 ml LB with Ampicilin (50 μg/ml) and Chloramphenicol (34 μg/ml) with bacteria from freeze culture. Incubate 8 h at 37° C. with 200 rpm. Thereafter, inoculate 500-1000 ml LB containing Amp and Chloro with the 5 ml on culture and grow to OD640 of 0.8-1.0. Chill the culture to +4° C. before induction. Induce the culture with IPTG at a final concentration of 400 μM. Express the protein at room temp 18-23° C. with 200 rpm shaking over night.
The following steps can be performed on the following day: • 1. Spin down the cells in 250 ml centrifuge flasks for 15 min at 7000 rpm (Beckmann Coulte Avanti J-E centrifuge) • 2. Dissolve the pellet from 250 ml culture in 12.5 ml homogenization buffer • 3. (15 mM Tris-HCL pH8, 1 mM EDTA pH8, […], 2.5 mM GSH, 1 Tablet Protease inhibitor per 50 ml buffer) • 4. Disintegrate the cells by sonication, 5×10 seconds at 48% amplitude of a 750 W sonifier • 5. Add 2.5 ml MgCl2 (100 mM) and DNase 12.5 μl (0.8 mg/ml) and incubate on ice for 30 min • 6. Spin down the bacteria debris and save the supernatant, 7000 rpm for 15 min • 7. Isolate the protein containing membranes in the supernatant by ultracentrifugation 120000×g for 2 hour at 4° C. (Sorvall T880 rotor). • 8. Discard the supernatant and dissolve the pellet in 20 mM Potassium phosphate buffer pH7.4 (KH2PO4 and K2HPO4) buffer by sonication (5×10 s, 30% of a 50 W sonifier) and aliquot the enzyme and store aliquots at −80° C.
Before each experiment is performed an aliquot of the enzyme is thawed and it can then be dissolved in 0.1 M Potassium phosphate buffer pH7.4 (KH2PO4 and K2HPO4) buffer containing 2.5 mM GSH.
The aim of this assay is to determine the affinity of a test compound for the mPGES-1 enzyme.
47 μl of recombinant human mPGES-1 (˜0.5 μg protein/well) containing microsomal suspension in a buffer containing GSH, (2.5 mmol/L L-Glutathione reduced, dissolved in 0.1 mol/L Phosphat Buffer pH 7.4) is dispensed in a 384-well plate and thereafter 1 μl of the test compound(s) is/are added and incubated for 25 minutes at room temperature. The enzyme reaction is started by the addition of 2 ul PGH2 (final conc 2 μM) disolved in water-free Diglyme. After 60 seconds the reaction is terminated by addition of a stop solution containing FeCl2 (10 μL 0.074 mol/l FeCl2). The samples are diluted between 1:25 in PBS (Phosphate Buffered Saline). 10 μl of the diluted samples are transferred to 384-well low volume plate. In order to quantify the amount of PGE2 that has been formed, a homogenous time resolved fluorescent (HTRF) detecting of PGE2 has been performed using a commercially available kit from Cisbio according to the manufactures recommendation. This HTRF-based assay has been described in detail (see: Goedken et al., J Biomol Screen, 2008, 13(7), 619-625). Briefly, the diluted samples are mixed with 5 μl PGE2-d2 conjugate and 5 μl anti-PGE2 cryptate conjugate. After an incubation period of the plates over night, the fluorescence is measured by the use of an appropriate microplate reader.
The fluorescence of Europium cryptate (maxex=307 nm, maxem=620 nm) and d2-PGE2 (maxex=620 nm, maxem=665 nm) are measured.
The extent of the specific HTRF is measured as a ratio of the emission intensity at 665 nm vs. that at 620 nm at an excitation puts of 320 nm. The quantification plate contains also wells with different concentrations of PGE2 as calibration curve for the calculation of the PGE2 concentrations from the HTRF ratio values.
From all mPGES enzyme assay the background is subtracted and the IC50 is calculated over a nonlinear regression with conventional software.

The target of another test is mPGES-1 in A549 cells (Homo sapiens (Human), UniProt O14684). Briefly: A549 cell-based assay (PGE2 formation, 50% human serum). As for the experimental part:
Although the enzymatic assay is a high throughput assay the disadvantage is that it uses a recombinant protein which is not in its natural environment. Accordingly a cellular assay was established in which a cell line of human origin (A549) expressing the mPGES-1 protein was used. In addition in order to mimic the situation in humans in which compounds can be bound to plasma proteins 50% human serum is added in the assay.
A549 cells (ATCC: CCL-185) are grown to about 90% confluence in F-12K Nutrient Mixture (Kaighn's Mod. Gibco) containing 10% FBS in a humified incubator at 37° C. and 5% CO2. Cells were detached using Trypsin-EDTA. A549 cells were seeded in a 384-well collagene plate at a density of 7000 cells/well (50 μl) in F-12 medium containing 1% Penicillin-Streptomycin and 50% human serum. The cells were allowed to attach for 3-4 h. After that the cells were incubated for 20-24 h in F-12k medium supplemented with 50% human serum, 1% Penicillin-Streptomycin and containing IL-1β at a final concentration of 5 ng/ml as well as 10 nM arachidonic acid in the presence of a vehicle or a test compound. The total volume is 100 μl.
Concentrations of PGE2 in the cell free medium (10 μl) were measured using a commercially available HTRF kit from Cisbio (as described above). The PGE2 formation in the absence of test compound was taken as 100%.
IC50 values were derived from at 6-8 point titrations using conventional software.

[2] abbreviates: recombinant human mPGES-1 microsomes, PGH2 2 μM, 60 seconds, read-out: mPGES-1 inhibitory effect IC50 in the enzyme assay.
Where [3] appears, read: IL-1β 5 ng/ml, 10 nM arachidonic acid, 20-24 h, read-out: mPGES-1 inhibitory effect IC50 in the cell assay.
[4] abbreviates: Table C comparison of selected benzimidazoles, read-out: Enzym IC50.
The mark [5] stands for this setting: Table C comparison of selected benzimidazoles, read-out: Cell IC50.

Chain of recombinant human mPGES-1 (O14684 whole entry): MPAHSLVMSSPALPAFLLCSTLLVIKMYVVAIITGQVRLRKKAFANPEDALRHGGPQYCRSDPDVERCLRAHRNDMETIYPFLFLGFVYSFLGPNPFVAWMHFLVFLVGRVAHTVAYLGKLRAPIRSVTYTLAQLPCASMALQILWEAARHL
Chain of mPGES-1 in A549 cells (O14684 whole entry): as above

As to `CN(c1cc2c(cc1C(=O)N[C@H]1CC[C@H](C(F)(F)F)CC1)nc(Nc1c(Cl)ccc(CNC(=O)C(C)(C)C)c1Cl)n2C)C1CC[S+]([O-])C1` (stereo partly drawn) [Example 118, N-(trans-4-Trifluoromethyl-cyclohexyl)-2-{2,6-dichloro-3-[(2,2-dimethyl-propionylamino)-methyl]-phenylamino}-6-[N-methyl-N-(1-oxo-tetrahydro-thiophen-3-yl)-amino]-1-methyl-1H-benzimidazole-5-carboxylic acid amide], the IC50 in test [1] (setting [2]) came out at 3 nM; at mPGES-1 in A549 cells (setting [3]), 10 nM.
Taken in the same sequence, the figures for `CN1CCN(c2cc3c(cc2C(=O)N[C@H]2CC[C@H](C(F)(F)F)CC2)nc(Nc2c(Cl)ccc(CNC(=O)C(C)(C)C)c2Cl)n3C)CC1=O` [Example 25] were 4 nM and 12 nM.
Taken in the same sequence, the figures for `CN(CC(C)(C)O)c1cc2c(cc1C(=O)N[C@H]1CC[C@H](C(F)(F)F)CC1)nc(Nc1c(Cl)ccc(CNC(=O)C(C)(C)C)c1Cl)n2C` [Example 109] were 2 nM and 1 nM.
Turning to `Cn1c(Nc2c(Cl)ccc(CNC(=O)C(C)(C)C)c2Cl)nc2cc(C(=O)NCC3CC3)c(N3CCC(F)(F)C3)cc21` [Example 45], the IC50 was determined as 5 nM in test [1] (setting [4]), 5 nM in test [1] (setting [2]), 7 nM on mPGES-1 in A549 cells (setting [3]) and 7 nM at mPGES-1 in A549 cells (setting [5]).
On to `Cn1c(Nc2c(Cl)ccc(CNC(=O)C(C)(C)C(F)(F)F)c2Cl)nc2cc(C(=O)N[C@H]3CC[C@H](C(F)(F)F)CC3)c(N3CC[C@@H](F)C3)cc21` [Example 128], for which the IC50 in test [1] (setting [2]) came out at 2 nM; at mPGES-1 in A549 cells (setting [3]) it was 1 nM.
The matching figures for `Cn1c(Nc2c(Cl)ccc(CNC(=O)[C@@](C)(O)C(F)(F)F)c2Cl)nc2cc(C(=O)Nc3ccc(F)c(Cl)c3)c(N3CCC(C(F)(F)F)CC3)cc21` [Example 233]: 3.9 nM and 1 nM.
For the compound `Cn1c(Nc2c(Cl)ccc(CNC(=O)C(C)(C)C)c2Cl)nc2cc(C(=O)Nc3ccc(Cl)c(F)c3)c(N3CCC(C(F)(F)F)CC3)cc21` [Example 56], the IC50 in test [1] (setting [2]) is 1 nM; at mPGES-1 in A549 cells (setting [3]), less than 1 nM.
Taken in the same sequence, the figures for `Cn1c(Nc2c(Cl)ccc(CNC(=O)c3c(O)cccc3F)c2Cl)nc2cc(C(=O)NCCC(F)(F)F)c(N3CCC(C(F)(F)F)CC3)cc21` [Example 179] were 2 nM and greater than 100 nM.
Taken in the same sequence, the figures for `Cn1c(Nc2c(Cl)ccc(CNC(=O)c3ccc(O)cc3F)c2Cl)nc2cc(C(=O)NCCC(F)(F)F)c(N3CCC(C(F)(F)F)CC3)cc21` [Example 173] were 2 nM and 2 nM.
As to `Cn1c(Nc2c(Cl)ccc(CNC(=O)C(C)(C)C)c2Cl)nc2cc(C(=O)NCCC(F)(F)F)c(N3CCCC(C(F)(F)F)C3)cc21` (stereo not shown) [Example 81, N-(3,3,3-Trifluoropropyl)-2-{2,6-dichloro-3-[(2,2-dimethyl-propionylamino)-methyl]-phenylamino}-6-[3-trifluoromethyl-piperidinyl]-1-methyl-1H-benzimidazole-5-carboxylic acid amide], the values for the IC50 (in test [1] (setting [2]); on mPGES-1 in A549 cells (setting [3])) were 4 nM and less than 1 nM, respectively.
Take `Cn1c(Nc2c(Cl)ccc(CNC(=O)C(C)(C)C)c2Cl)nc2cc(C(=O)NC3CCN(CC(F)(F)F)CC3)c(N3CCC(C(F)(F)F)CC3)cc21` [Example 59]: the IC50 was 4 nM in test [1] (setting [2]) and less than 1 nM at mPGES-1 in A549 cells (setting [3]).
Turning to `C#CCN(C)c1cc2c(cc1C(=O)N[C@H]1CC[C@H](C(F)(F)F)CC1)nc(Nc1c(Cl)ccc(CNC(=O)C(C)(C)C)c1Cl)n2C` [Example 103, N-(trans-4-Trifluoromethyl-cyclohexyl)-2-{2,6-dichloro-3-[(2,2-dimethyl-propionylamino)-methyl]-phenylamino}-6-[N-methyl-N-propargylamino]-1-methyl-1H-benzimidazole-5-carboxylic acid amide], the IC50 in test [1] (setting [2]) is 1 nM; at mPGES-1 in A549 cells (setting [3]), less than 1 nM.
For the compound `Cn1c(Nc2c(Cl)ccc(CNC(=O)C(C)(C)C)c2Cl)nc2cc(C(=O)N[C@H]3CC[C@H](C(F)(F)F)CC3)c(N3CC4CCCC43)cc21` (stereo partly shown) [Example 95], the results for the IC50 (in test [1] (setting [2]); at mPGES-1 in A549 cells (setting [3])) were 2 nM and 7 nM, respectively.
For the compound `Cn1c(Nc2c(Cl)ccc(CNC(=O)C(C)(C)C)c2Cl)nc2cc(C(=O)NCC(F)(F)C(F)(F)F)c(N3CCC(F)(F)CC3)cc21` [Example 70], the IC50 (in test [1] (setting [2]); on mPGES-1 in A549 cells (setting [3])) was 2 nM in each case.
With `Cn1c(Nc2c(Cl)ccc(CNC(=O)C(C)(C)C)c2Cl)nc2cc(C(=O)NC3(c4ccc(F)cc4)CC3)c(N3CCC(F)(F)C3)cc21` [Example 37], the IC50 in test [1] (setting [2]) was 5 nM; at mPGES-1 in A549 cells (setting [3]), 3 nM.
In the case of `CN(CC(F)F)c1cc2c(cc1C(=O)Nc1ccc(F)c(Cl)c1)nc(Nc1c(Cl)ccc(CNC(=O)C(C)(C)C)c1Cl)n2C` [Example 2, N-(4-Fluoro-3-chloro-phenyl)-2-{2,6-dichloro-3-[(2,2-dimethyl-propionylamino)-methyl]-phenylamino}-6-[N-methyl-N-(2,2-difluoroethyl)-amino]-1-methyl-1H-benzimidazole-5-carboxylic acid amide], the IC50 in test [1] (setting [4]) was 2 nM; in test [1] (setting [2]), 2 nM; on mPGES-1 in A549 cells (setting [3]), less than 1 nM; on mPGES-1 in A549 cells (setting [5]), less than 1 nM.
Turning to `Cn1c(Nc2c(Cl)ccc(CNC(=O)C(C)(C)C)c2Cl)nc2cc(C(=O)Nc3ccc(F)c(Cl)c3)c(N3CCC(F)(F)C3)cc21` [Example 42], the IC50 (in test [1] (setting [2]); at mPGES-1 in A549 cells (setting [3])) was 2 nM in each case.
Consider `Cn1c(Nc2c(Cl)ccc(CNC(=O)C(C)(C)C)c2Cl)nc2cc(C(=O)Nc3ccc(F)c(Cl)c3)c(N3CC[C@@H](F)C3)cc21` [Example 246], for which the IC50 in test [1] (setting [2]) came out at 2.9 nM; at mPGES-1 in A549 cells (setting [3]), 1.5 nM.
For `CC(C)(O)Cn1c(Nc2c(Cl)ccc(CNC(=O)C(C)(C)C)c2Cl)nc2cc(C(=O)N[C@H]3CC[C@H](C(F)(F)F)CC3)c(N3CCOCC3)cc21` [Example 168], the IC50 in test [1] (setting [2]) came out at 3 nM.
Same read-out and setting: under `Cn1c(Nc2c(Cl)ccc(CNC(=O)C(C)(C)C)c2Cl)nc2cc(C(=O)N[C@H]3CC[C@H](C(F)(F)F)CC3)c(N3CC4CCC3C4)cc21` (stereo partly shown) [Example 127] stands 2 nM.
With `Cc1n[nH]c(CN(C)c2cc3c(cc2C(=O)N[C@H]2CC[C@H](C(F)(F)F)CC2)nc(Nc2c(Cl)ccc(CNC(=O)C(C)(C)F)c2Cl)n3C)n1` [Example 115], the IC50 on mPGES-1 in A549 cells (setting [3]) was 2 nM.
